Like-named read-outs stand apart in the source and are kept apart here.
Experiments:
Pol I transcription [1] = assay: In vitro transcription: TIF-IA mutants added to nuclear extract from exponentially growing FM3A cells; assay type: biochemical, murine; settings: 20 and 40 ng added to 15 ug nuclear extract
Pol I transcription [2] = assay: Complementation of Pol I transcription in nuclear extracts from rapamycin-treated FM3A cells; assay type: biochemical
Experimental: (B) Complementation of transcriptional activity in nuclear extracts from rapamycin-treated cells. Transcription reactions contained nuclear extracts (30 μg) from untreated (NE) or rapamycin-treated (NERapa) FM3A cells. In lanes 3-7, fractions containing partially purified Pol I transcription factors were added to NERapa-containing reactions.
(C) TIF-IA activates transcription in nuclear extracts form rapamycin-treated cells. Reactions were complemented with either 1 μl (lanes 2 and 5) of cellular TIF-IA (PL-650 fraction) or 20 ng (lanes 3 and 6) of immunopurified recombinant TIF-IA that has been expressed in SF9 cells.
(A) mTOR rescues transcription in vitro. Pol I transcription was assayed in nuclear extracts from rapamycin-treated FM3A cells. Reactions were supplemented with 50 ng TIF-IA (lane 1) or 10 ng, 20 ng and 30 ng of HA-mTOR (lanes 3-5).
(B) S6K1 activates Pol I transcription in extracts from rapamycin-treated cells. NERapa was supplemented with 50 ng TIF-IA (lane 1) or 100, 150 and 200 ng of GST-S6K1 (lanes 3-5) or GST-S6K1dd (lanes 6-8).
Nuclear extracts were prepared from exponentially growing (8×10^5 cells/ml), density-arrested or PD98059-treated (CN Bioscience, Bad Soden, Germany) 40 μM, 0.5 hr) or rapamycin-treated FM3A cells (ATCC, Manassas, USA). 25 μl assays contained 50 ng of template DNA (pMr600/EcoRI), 30 μg nuclear extract proteins and 12 mM Hepes-KOH, [pH8.0], 0.1 mM EDTA, 5 mM MgCl2, 80 mM KCl, 10 mM creatine phosphate, 12% (v/v) glycerol, 0.66 mM each of ATP, GTP and CTP, 0.01 mM UTP and 0.5 μCi [α-^32P]UTP (5000 Ci/mmol). After incubation for 60 min at 30° C., RNA was extracted and analyzed on non-denaturing 5% polyacrylamide gels
mTOR and S6K1 were purified from HEK293T cells overexpressing HA-tagged mTOR or GST/myc-tagged S6K1, respectively. 5×10^6 cells were lysed in 0.8 ml IP buffer, centrifuged at 10,000×g for 20 min, and the supernatants were incubated for 4 hr at 4° C. with either 15 μg anti-HA antibodies bound to 20 μl protein G-agarose (for HA-mTOR) or 20 μl packed GST-glutathione beads (for GST-myc-S6K1). […]

TIF-IA: wild-type human transcription initiation factor TIF-IA, accession No. AJ272050
effect on transcriptional activity of extracts from exponentially growing cells (Pol I transcription [1]): not stimulated by exogenous TIF-IA
rescue of Pol I transcription in extracts from rapamycin-treated cells (Pol I transcription [2]): relieved rapamycin-mediated transcriptional repression
rescue of Pol I transcription in extracts from rapamycin-treated cells (Pol I transcription [2]; listed as recombinant TIF-IA): restored transcriptional activity

From patent publication US20060057669A1, “Inactive transcription factor tif-ia and uses thereof” (priority 2002, published 2006)
